Laboratory results reported in ChEMBL document CHEMBL3885881, “DrugMatrix”.

Species: Rattus norvegicus
Assay: DrugMatrix - Regimen: Daily Repeat
Assay type: toxicity, organism-based, Sprague-Dawley
Set-up: regimen Daily Repeat, gender Male, age 6-8 weeks
Details: in vivo, po, 13 mg/kg, route oral GAVAGE, dose level Low, vehicle 100 % WATER; for ABSOLUTE BASOPHIL / ABSOLUTE EOSINOPHIL / ABSOLUTE LYMPHOCYTE / ABSOLUTE MONOCYTE / ABSOLUTE SEGMENTED NEUTROPHIL / BASOPHIL / EOSINOPHIL / ERYTHROCYTE COUNT / HEMATOCRIT / HEMOGLOBIN / LEUKOCYTE COUNT / LYMPHOCYTE / MEAN CORPUSCULAR HEMOGLOBIN / MEAN CORPUSCULAR HEMOGLOBIN CONCENTRATION / MEAN CORPUSCULAR VOLUME / MONOCYTE / NEUTROPHIL / NUCLEATED RED BLOOD CELLS / PLATELET COUNT: tissue Blood; for ALANINE AMINOTRANSFERASE / ALBUMIN / ALKALINE PHOSPHATASE / ASPARTATE AMINOTRANSFERASE / BLOOD UREA NITROGEN / CARBON DIOXIDE / CHLORIDE / CHOLESTEROL / CREATINE PHOSPHOKINASE / CREATININE / GLUCOSE / LACTATE DEHYDROGENASE / LIPASE / PHOSPHORUS / POTASSIUM / SODIUM / TOTAL BILIRUBIN / TOTAL PROTEIN / URIC ACID: tissue Plasma

SMILES: OC(CCCN1CCCCC1)(c1ccccc1)c1ccccc1 [DIPHENIDOL]
- ABSOLUTE BASOPHIL (72 h, time 3 day): 0 CELLS/uL
- ABSOLUTE EOSINOPHIL (72 h, time 3 day): 54.67 CELLS/uL
- ABSOLUTE LYMPHOCYTE (72 h, time 3 day): 13934 CELLS/uL
- ABSOLUTE MONOCYTE (72 h, time 3 day): 204 CELLS/uL
- ABSOLUTE SEGMENTED NEUTROPHIL (72 h, time 3 day): 740.67 CELLS/uL
- BASOPHIL (72 h, time 3 day): 0%
- EOSINOPHIL (72 h, time 3 day): 0.33%
- ERYTHROCYTE COUNT (72 h, time 3 day): 5.67 x10E6/uL
- HEMATOCRIT (72 h, time 3 day): 36.33%
- HEMOGLOBIN (72 h, time 3 day): 14.43 G/DL
- LEUKOCYTE COUNT (72 h, time 3 day): 14.93 x10E3/uL
- LYMPHOCYTE (72 h, time 3 day): 93.33%
- MEAN CORPUSCULAR HEMOGLOBIN (72 h, time 3 day): 25.47 pg
- MEAN CORPUSCULAR HEMOGLOBIN CONCENTRATION (72 h, time 3 day): 39.7 G/DL
- MEAN CORPUSCULAR VOLUME (72 h, time 3 day): 64.07 fL
- MONOCYTE (72 h, time 3 day): 1.33%
- NEUTROPHIL (72 h, time 3 day): 5%
- NUCLEATED RED BLOOD CELLS (72 h, time 3 day): 0 /100WBC
- PLATELET COUNT (72 h, time 3 day): 1276.67 x10E3/uL
- ALANINE AMINOTRANSFERASE (72 h, time 3 day): 58.33 u/L
- ALBUMIN (72 h, time 3 day): 4.23 G/DL
- ALKALINE PHOSPHATASE (72 h, time 3 day): 408.67 u/L
- ASPARTATE AMINOTRANSFERASE (72 h, time 3 day): 99.33 u/L
- BLOOD UREA NITROGEN (72 h, time 3 day): 17.33 mg/dL
- CARBON DIOXIDE (72 h, time 3 day): 25 mmol/L
- CHLORIDE (72 h, time 3 day): 102.33 MEQ/L
- CHOLESTEROL (72 h, time 3 day): 72 mg/dL
- CREATINE PHOSPHOKINASE (72 h, time 3 day): 574 u/L
- CREATININE (72 h, time 3 day): 0.29 mg/dL
- GLUCOSE (72 h, time 3 day): 169.33 mg/dL
- LACTATE DEHYDROGENASE (72 h, time 3 day): 402.67 u/L
- LIPASE (72 h, time 3 day): 9.67 u/L
- PHOSPHORUS (72 h, time 3 day): 13.97 mg/dL
- POTASSIUM (72 h, time 3 day): 7.15 MEQ/L
- SODIUM (72 h, time 3 day): 146.43 MEQ/L
- TOTAL BILIRUBIN (72 h, time 3 day): 0.2 mg/dL
- TOTAL PROTEIN (72 h, time 3 day): 5.77 G/DL
- URIC ACID (72 h, time 3 day): 3.3 mg/dL
- ABSOLUTE BASOPHIL (120 h, time 5 day): 0 CELLS/uL
- ABSOLUTE EOSINOPHIL (120 h, time 5 day): 69 CELLS/uL
- ABSOLUTE LYMPHOCYTE (120 h, time 5 day): 13769 CELLS/uL
- ABSOLUTE MONOCYTE (120 h, time 5 day): 0 CELLS/uL
- ABSOLUTE SEGMENTED NEUTROPHIL (120 h, time 5 day): 1595.33 CELLS/uL
- BASOPHIL (120 h, time 5 day): 0%
- EOSINOPHIL (120 h, time 5 day): 0.33%
- ERYTHROCYTE COUNT (120 h, time 5 day): 5.45 x10E6/uL
- HEMATOCRIT (120 h, time 5 day): 34.73%
- HEMOGLOBIN (120 h, time 5 day): 13.73 G/DL
- LEUKOCYTE COUNT (120 h, time 5 day): 15.43 x10E3/uL
- LYMPHOCYTE (120 h, time 5 day): 89.67%
- MEAN CORPUSCULAR HEMOGLOBIN (120 h, time 5 day): 25.2 pg
- MEAN CORPUSCULAR HEMOGLOBIN CONCENTRATION (120 h, time 5 day): 39.53 G/DL
- MEAN CORPUSCULAR VOLUME (120 h, time 5 day): 63.8 fL
- MONOCYTE (120 h, time 5 day): 0%
- NEUTROPHIL (120 h, time 5 day): 10%
- NUCLEATED RED BLOOD CELLS (120 h, time 5 day): 0 /100WBC
- PLATELET COUNT (120 h, time 5 day): 1177.33 x10E3/uL
- ALANINE AMINOTRANSFERASE (120 h, time 5 day): 49 u/L
- ALBUMIN (120 h, time 5 day): 4.23 G/DL
- ALKALINE PHOSPHATASE (120 h, time 5 day): 358.67 u/L
- ASPARTATE AMINOTRANSFERASE (120 h, time 5 day): 78 u/L
- BLOOD UREA NITROGEN (120 h, time 5 day): 18.67 mg/dL
- CARBON DIOXIDE (120 h, time 5 day): 28 mmol/L
- CHLORIDE (120 h, time 5 day): 101.67 MEQ/L
- CHOLESTEROL (120 h, time 5 day): 68.67 mg/dL
- CREATINE PHOSPHOKINASE (120 h, time 5 day): 194.33 u/L
- CREATININE (120 h, time 5 day): 0.17 mg/dL
- GLUCOSE (120 h, time 5 day): 148.33 mg/dL
- LACTATE DEHYDROGENASE (120 h, time 5 day): 83.67 u/L
- LIPASE (120 h, time 5 day): 9 u/L
- PHOSPHORUS (120 h, time 5 day): 12.13 mg/dL
- POTASSIUM (120 h, time 5 day): 6.32 MEQ/L
- SODIUM (120 h, time 5 day): 146.57 MEQ/L
- TOTAL BILIRUBIN (120 h, time 5 day): 0.17 mg/dL
- TOTAL PROTEIN (120 h, time 5 day): 5.97 G/DL
- URIC ACID (120 h, time 5 day): 1.13 mg/dL
